Laboratory results: PubChem BioAssay AID434942 (Johns Hopkins Ion Channel Center, 2010)

Target: Short transient receptor potential channel 4 (Mus musculus) (UniProt Q9QUQ5)
Experiment: block of DAMGO-driven TRPC4 calcium entry – cell-based, HEK293 TRPC4/mu-opioid, Fluo-4 calcium, dose response (AID 434942);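 further: potency of inhibitors blocking the DAMGO-evoked TRPC4 calcium rise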
Conditions: HEK293 TRPC4/mu-opioid cells, DAMGO-evoked Fluo-4 calcium ratio

Short transient receptor potential channel 4 (Mus musculus), sequence (Q9QUQ5 whole entry, looked up): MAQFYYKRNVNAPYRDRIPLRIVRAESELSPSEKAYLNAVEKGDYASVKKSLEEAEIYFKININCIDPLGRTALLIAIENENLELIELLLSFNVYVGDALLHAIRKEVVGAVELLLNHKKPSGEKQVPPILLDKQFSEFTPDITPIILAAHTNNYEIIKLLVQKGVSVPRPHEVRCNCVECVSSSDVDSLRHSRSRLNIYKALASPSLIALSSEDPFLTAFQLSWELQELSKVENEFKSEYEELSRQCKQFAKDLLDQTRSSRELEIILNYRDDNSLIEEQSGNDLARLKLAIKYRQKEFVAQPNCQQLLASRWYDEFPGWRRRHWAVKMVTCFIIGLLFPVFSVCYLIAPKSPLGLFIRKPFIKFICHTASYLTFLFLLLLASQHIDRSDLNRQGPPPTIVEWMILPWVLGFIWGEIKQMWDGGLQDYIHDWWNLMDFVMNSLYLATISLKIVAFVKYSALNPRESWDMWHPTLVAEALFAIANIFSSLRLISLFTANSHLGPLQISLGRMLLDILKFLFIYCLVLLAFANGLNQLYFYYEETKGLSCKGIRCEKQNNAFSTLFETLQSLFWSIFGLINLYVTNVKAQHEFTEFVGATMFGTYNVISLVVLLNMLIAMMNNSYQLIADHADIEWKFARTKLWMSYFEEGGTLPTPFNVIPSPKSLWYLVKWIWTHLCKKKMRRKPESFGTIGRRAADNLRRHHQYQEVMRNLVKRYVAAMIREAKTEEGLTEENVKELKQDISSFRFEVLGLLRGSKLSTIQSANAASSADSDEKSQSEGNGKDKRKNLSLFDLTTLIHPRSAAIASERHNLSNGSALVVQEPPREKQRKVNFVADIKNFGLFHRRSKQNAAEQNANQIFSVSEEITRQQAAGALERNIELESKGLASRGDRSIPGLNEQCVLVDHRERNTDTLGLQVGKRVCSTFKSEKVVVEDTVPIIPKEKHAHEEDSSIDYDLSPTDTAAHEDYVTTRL

IC50 | Structure (SMILES)
2110 nM | CC1Cc2ccccc2N1C(=O)CSc1nc2c(c(=O)n(C)c(=O)n2C)n1Cc1ccccc1 (configuration not stated)
1500 nM | CC(=O)Nc1ccc(C2(c3ccc(NC(C)=O)cc3)C(=O)Nc3ccccc32)cc1
